# Assay results published in BindingDB's records for doi:10.1016/s0960-894x(03)00532-8 (British Biotech Pharmaceuticals, 2003).
# Biological target: Peptide deformylase (Escherichia coli) (UniProt P0A6K3)
# Assay: Inhibition against Escherichia coli peptide deformylase
# Sequence of Peptide deformylase (Escherichia coli) (P0A6K3 whole entry, looked up): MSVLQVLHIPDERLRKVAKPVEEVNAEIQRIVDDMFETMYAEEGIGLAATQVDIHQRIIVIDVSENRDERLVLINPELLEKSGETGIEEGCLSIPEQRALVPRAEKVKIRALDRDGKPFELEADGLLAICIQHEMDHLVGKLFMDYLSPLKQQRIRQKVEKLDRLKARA
row,IC50 [nM],SMILES
1,40,"CCCCCCC[C@H](CN(O)C=O)C(=O)N[C@H](C(=O)N(C)C)C(C)(C)C [(R)-2-[(Formyl-hydroxy-amino)-methyl]-nonanoic acid ((S)-1-dimethylcarbamoyl-2,2-dimethyl-propyl)-amide]"
2,30,"CCCCCC[C@H](CN(O)C=O)C(=O)N[C@H](C(=O)N(C)C)C(C)(C)C [(R)-2-[(Formyl-hydroxy-amino)-methyl]-octanoic acid ((S)-1-dimethylcarbamoyl-2,2-dimethyl-propyl)-amide]"
3,20,"CN(C)C(=O)[C@@H](NC(=O)[C@H](Cc1ccccc1)CN(O)C=O)C(C)(C)C [(S)-2-[(R)-2-Benzyl-3-(formyl-hydroxy-amino)-propionylamino]-3,3,N,N-tetramethyl-butyramide]"
4,20,"CC(C)CC[C@H](CN(O)C=O)C(=O)N[C@H](C(=O)N(C)C)C(C)(C)C [(R)-2-[(Formyl-hydroxy-amino)-methyl]-5-methyl-hexanoic acid ((S)-1-dimethylcarbamoyl-2,2-dimethyl-propyl)-amide]"
5,50,"CCC[C@H](CN(O)C=O)C(=O)N[C@H](C(=O)N(C)C)C(C)(C)C [(R)-2-[(Formyl-hydroxy-amino)-methyl]-pentanoic acid ((S)-1-dimethylcarbamoyl-2,2-dimethyl-propyl)-amide]"
6,50,"CC(C)[C@H](CN(O)C=O)C(=O)N[C@H](C(=O)N(C)C)C(C)(C)C [(R)-N-((S)-1-Dimethylcarbamoyl-2,2-dimethyl-propyl)-2-[(formyl-hydroxy-amino)-methyl]-3-methyl-butyramide]"
7,30,"C=CC[C@H](CN(O)C=O)C(=O)N[C@H](C(=O)N(C)C)C(C)(C)C [(R)-2-[(Formyl-hydroxy-amino)-methyl]-pent-4-enoic acid ((S)-1-dimethylcarbamoyl-2,2-dimethyl-propyl)-amide]"
8,70,"CC[C@H](CN(O)C=O)C(=O)N[C@H](C(=O)N(C)C)C(C)(C)C [(S)-2-{(R)-2-[(Formyl-hydroxy-amino)-methyl]-butyrylamino}-3,3,N,N-tetramethyl-butyramide]"
9,30,"CC#CC[C@H](CN(O)C=O)C(=O)N[C@H](C(=O)N(C)C)C(C)(C)C [(R)-2-[(Formyl-hydroxy-amino)-methyl]-hex-4-ynoic acid ((S)-1-dimethylcarbamoyl-2,2-dimethyl-propyl)-amide]"
10,20,"CN(C)C(=O)[C@@H](NC(=O)[C@@H](CN(O)C=O)C1CCCC1)C(C)(C)C [(S)-2-[(R)-2-Cyclopentyl-3-(formyl-hydroxy-amino)-propionylamino]-3,3,N,N-tetramethyl-butyramide]"
11,10,"CC(C)C[C@H](CN(O)C=O)C(=O)N[C@H](C(=O)N(C)C)C(C)(C)C [(R)-2-[(Formyl-hydroxy-amino)-methyl]-4-methyl-pentanoic acid ((S)-1-dimethylcarbamoyl-2,2-dimethyl-propyl)-amide]"
12,> 1000,"CN(C)C(=O)[C@@H](NC(=O)[C@@H](CN(O)C=O)CN1CCCCC1)C(C)(C)C [(S)-2-{(R)-2-[(Formyl-hydroxy-amino)-methyl]-3-piperidin-1-yl-propionylamino}-3,3,N,N-tetramethyl-butyramide]"
13,100,"C[C@H](CN(O)C=O)C(=O)N[C@H](C(=O)N(C)C)C(C)(C)C [(S)-2-[(R)-3-(Formyl-hydroxy-amino)-2-methyl-propionylamino]-3,3,N,N-tetramethyl-butyramide]"
14,50,"CCCCCCCC[C@H](CN(O)C=O)C(=O)N[C@H](C(=O)N(C)C)C(C)(C)C [(R)-2-[(Formyl-hydroxy-amino)-methyl]-decanoic acid [1-((S)-dimethyl-carbamoyl)-2,2-dimethyl-propyl]-amide]"
15,6,"CN(C)C(=O)[C@@H](NC(=O)[C@H](CC1CCCCC1)CN(O)C=O)C(C)(C)C [(S)-2-[(R)-2-Cyclohexylmethyl-3-(formyl-hydroxy-amino)-propionylamino]-3,3,N,N-tetramethyl-butyramide]"
16,600,"CCCC[C@@H](C(=O)N[C@H](C(=O)N(C)C)C(C)(C)C)C(C)N(O)C=O (stereo partly drawn) [(R)-2-[1-(Formyl-hydroxy-amino)-ethyl]-hexanoic acid ((S)-1-dimethylcarbamoyl-2,2-dimethyl-propyl)-amide]"
17,20,"C=CCC[C@H](CN(O)C=O)C(=O)N[C@H](C(=O)N(C)C)C(C)(C)C [(R)-2-[(Formyl-hydroxy-amino)-methyl]-hex-5-enoic acid ((S)-1-dimethylcarbamoyl-2,2-dimethyl-propyl)-amide]"
18,10,"CCCCC[C@H](CN(O)C=O)C(=O)N[C@H](C(=O)N(C)C)C(C)(C)C [(R)-2-[(Formyl-hydroxy-amino)-methyl]-heptanoic acid ((S)-1-dimethylcarbamoyl-2,2-dimethyl-propyl)-amide]"
19,20,"CCSC[C@H](CN(O)C=O)C(=O)N[C@H](C(=O)N(C)C)C(C)(C)C [(S)-2-[(R)-2-Ethylsulfanylmethyl-3-(formyl-hydroxy-amino)-propionylamino]-3,3,N,N-tetramethyl-butyramide]"
